Experimental data published in PMC6161432 (The Journal of Venomous Animals and Toxins Including …, 2018).
Entries after “also recorded” stand apart in the source; their conditions may differ. Like-named read-outs stand apart in the source and are kept apart here.

Key:
[1] = test system: Leishmania (L.) infantum promastigotes; experiment: Activity against L. (L.) infantum promastigotes (MTT viability assay); assay type: cell-based; settings: 48 h at 24 °C, NA = not active, maximum tested concentration 100 μM; for EC50: read-out: EC50 Leishmania (L.) infantum Promastigote (95% CI)
Procedure: (§1) Isolated promastigotes of Leishmania (L.) infantum (MHOM/BR/1972/LD) were maintained in M-199 medium supplemented with 10% calf serum and 0.25% hemin at 24 °C. The L. (L.) infantum (MHOM/BR/1972/LD) was maintained in hamsters (Mesocricetus auratus). Amastigotes were harvested from spleens of infected hamsters. The animals were infected with 10^8 amastigotes (300 μL) by the i.p. route. At 60 days post-infection, the animals were euthanized, and the spleens analyzed by light microscopy using Giemsa-stained smears. The parasite load was expressed in Leishman-Donovan units (i.e., the number of amastigotes per 1000 nucleated cells x organ weight [in g] × 2 × 10^5). Briefly, the spleen was macerated in a tissue grinder tube containing 5 mL of phosphate-buffered saline (PBS), whereas the amastigotes were separated by differential centrifugation to obtain a suspension of parasites. The first centrifugation of the spleen suspension (0.8 rpm) was employed to separate the red and white cells (pellet) from the amastigote forms (supernatant). Next, a second centrifugation of the supernatant from the previous step (2.8 rpm) was performed to concentrate the amastigote forms.
Promastigotes were counted in a Neubauer hemocytometer and seeded at 1 × 10^6/well to obtain a final volume of 150 μL. Controls with DMSO and without drugs were also performed. Miltefosine was dissolved in H2O at 30 mg/mL and used as a standard drug. […] Each point was tested in duplicate. The plate was incubated for 48 h at 24 °C and the viability of promastigotes was verified by morphology in light microscopy and by the MTT assay. Briefly, MTT ([…]) was dissolved in PBS, sterilized through 0.22 μm membranes and added (20 μL/well) for 4 h at 24 °C. Promastigotes were incubated without compounds and used as viability control. Formazan extraction was performed using 10% SDS for 18 h (80 μL/well) at 24 °C and the optical density (OD) was determined in a Multiskan MS (UNISCIENCE) at 550 nm. One hundred percent (100%) viability was expressed based on the OD of control promastigotes, after normalization.
(§2) The obtained data represent the mean and standard deviation of duplicate samples from two independent assays. EC50 values were calculated using sigmoid dose–response curves in the software GraphPad Prism 5.0; the 95% confidence intervals are included in parentheses. The Mann–Whitney test was used for the significance test (P value).

[2] = test system: Leishmania (L.) infantum intracellular amastigotes; experiment: Activity against L. (L.) infantum intracellular amastigotes in mouse peritoneal macrophages (Giemsa counting, parasitic index); assay type: cell-based; settings: for EC50: read-out: EC50 Leishmania (L.) infantum Amastigote (95% CI)
Procedure: as §1
Peritoneal macrophages were collected from the peritoneal cavity of female BALB/c mice by washing with RPMI-1640 without phenol red, supplemented with 10% fetal bovine serum.
Amastigotes were isolated from spleens of previously infected hamsters, and separated by differential centrifugation. The tissue sample was macerated to break the cell membranes to release all cell contents including the amastigotes. Then the lysate was subjected to two repeated centrifugations (0.8 rpm followed 2.8 rpm) where density separation causes a sediment. The supernatant and the pellet were recovered via the first and second centrifugation, respectively. […] Non-internalized parasites were removed by washing once with medium, whereas tested compounds were incubated with infected macrophages for 96 h. Miltefosine was also used as a standard control drug. Subsequently, the cells were fixed with MeOH, stained with Giemsa and observed through a light microscope. The parasite burden was determined by the ratio of infected macrophages versus the mean number of amastigotes per macrophage out of 500 macrophages, i.e., the parasitic index (PI). […] Each point was tested in duplicate.
as §2

[3] = Cytotoxicity against mammalian cells (MTT assay); settings: mouse
NCTC clone L-929 cells = experiment: Cytotoxicity against mammalian cells (MTT assay); settings: CC50 against mammalian cells / EC50 against amastigotes
[4] = Peritoneal macrophage, 96 h, intracellular amastigotes in BALB/c peritoneal macrophages, 96 h incubation, NA = not active, maximum tested concentration 100 μM
[5] = intracellular amastigotes in BALB/c peritoneal macrophages, 96 h incubation, NA = not active, maximum tested concentration 100 μM

SMILES | EC50 [2, 4] [µM] | EC50 [2, 5] [µM] | EC50 ([1]; 48 h) [µM] | CC50 at 48 h ([3]; NCTC clone L-929 cells) [µM] | SI Amastigote (selectivity index) (NCTC clone L-929 cells) | EC50 [1] [µM] | EC50 Leishmania (L.) infantum Promastigote (95% CI) [1] | EC50 Leishmania (L.) infantum Amastigote (95% CI) [2, 5] | EC50 Leishmania (L.) infantum Amastigote (95% CI) ([2]; 96 h, 100 µM) | CC50 at 48 h [3] [µM]
C=CCc1cc(OC)c(OC)c(-c2cc(CC=C)cc(OC)c2OC)c1 [Compound 6, dehydrodieugenol dimethyl ether] | 13.7 | – | 88.8 | > 200 | > 14.6 | – | – | – | – | –
C=CCc1ccc(O)c(OC)c1 [eugenol, reference compound] | – | – | – | > 200 | – | – | no activity | did not display activity; also recorded: no activity | – | –
C=CCc1ccc(OC)c(OC)c1 [methyleugenol] | – | – | – | – | – | – | – | did not display activity | no activity | > 200
C=CCc1ccc(Oc2cc([C@H](O)C=C)cc(OC)c2O)c(OC)c1 [Compound 3, 1-[(7R)-hydroxy-8-propenyl]-3-[3′-methoxy-1′-(8′-propenyl)-phenoxy]-4-hydroxy-5-methoxybenzene] | – | – | – | > 200 | – | – | no activity | inactive | – | –
C=CCc1cc(OC)c(O)c(-c2cc(CC=C)cc(OC)c2O)c1 [Compound 5] | – | – | – | 58.1 | – | – | no activity | inactive | – | –

Further lines, with some results ahead:

EC50 [2, 4] [µM] | EC50 [2, 5] [µM] | SMILES | EC50 ([1]; 48 h) [µM] | CC50 at 48 h ([3]; NCTC clone L-929 cells) [µM] | SI Amastigote (selectivity index) (NCTC clone L-929 cells) | EC50 [1] [µM] | EC50 Leishmania (L.) infantum Promastigote (95% CI) [1] | EC50 Leishmania (L.) infantum Amastigote (95% CI) [2, 5] | EC50 Leishmania (L.) infantum Amastigote (95% CI) ([2]; 96 h, 100 µM) | CC50 at 48 h [3] [µM]
67.7 | – | C=CCc1ccc(Oc2cc([C@H](O)C=C)cc(OC)c2OC)c(OC)c1 [Compound 4, 1-[(7R)-hydroxy-8-propenyl]-3-[3′-methoxy-1′-(8′-propenyl)-phenoxy]-4,5-dimethoxybenzene] | 65.4 | > 200 | > 2.9 | – | – | – | – | –
16.4 | 16.9 | CCCCCCCCCCCCCCCCOP(=O)([O-])OCC[N+](C)(C)C [miltefosine, reference compound] | 16.9 | 122 | 7.2 | 16.4 | – | – | – | –
